Reference: patent US20210268030A1, “FIBROADIPOGENIC PROGENITOR-DERIVED EXOSOMES FOR REGENERATION OF DYSTROPHIC MUSCLES” (EXOFIX S.R.L., priority 2018, published 2021)

Experiments:
Notch3 = Notch3 transcripts in MuSCs isolated from treated mdx mice; format: in vivo; settings: MuSCs isolated from mdx mice treated with TSA
Method: (§1) Animals were used at the specified age and treated for the indicated periods with daily intra peritoneal injections of Trichostatin A, TSA (0.6 mg/kg/day; #T8552, Sigma), dissolved in phospate-saline solution or in phospate-saline alone as vehicle control (CTR). Muscle injury was performed by intramuscular injection in Tibliais Anterior (TA) of Cardiotoxin—CTX− (10 μM, 10 mg/mL) (#L8102, Lotaxan Valence, France, http://www.latoxan.com), 3 days before mice sacrifice.
(§2) For RNA-sequencing sample preparation, MuSCs and FAPs were freshly isolated by FACS from 6 C57BI6 mdx male mice 8-weeks old treated or not with TSA for 15 days. RNA was collected using Trizol) reagent (#T9424, Sigma). About 100 ng/μL of total RNA was sent in duplicate to IGA (Istituto di Genomica Applicata, Udine) for RNA sequencing using Illumina TruSeq Stranded Total RNA kit Ribo-Zero GOLD on Illumina Hiseq2500 platform.
(§3) To investigate this hypothesis, we evaluated the effect of FAP-derived exosomes from HDACi-treated or control-treated mdx mice on MuSCs within single fibres isolated from WT mice. Freshly isolated single muscle fibres from tibialis anterior, extensor digitorum longus, gastrocnemius and soleus of C57BL6J mice were incubated with FAP-derived exosomes or whole conditioned media, and their effect on MuSCs was evaluated by monitoring the expression of Pax7, MyoD and DNA synthesis (EdU incorporation). […]

Notch1 = Notch1 transcripts in MuSCs isolated from treated mdx mice; format: in vivo; settings: MuSCs isolated from mdx mice treated with TSA
Method: as §1, §2, §3

CC(/C=C/C(=O)NO)=C\[C@@H](C)C(=O)c1ccc(N(C)C)cc1 [TSA, Trichostatin A]
Notch3 transcripts (Notch3): reduced | Notch1 transcripts (Notch1): reduced
